# Like-named read-outs stand apart in the source and are kept apart here.
# Experiments:
# [1] = Adverse events (NCI CTCAE v5.0), Phase Ib study; type: in vivo, human; conditions: for Patients with AE leading to discontinuation of the drug / Patients with AE leading to dose interruption of the drug / Patients with AE leading to dose reduction of the drug / Patients with AE related to the drug: all enrolled patients
# Excerpt: Safety assessments consisted of monitoring and recording adverse events, including serious adverse events and adverse events of special interest, performing protocol-specified safety laboratory assessments, measuring protocol-specified vital signs, and conducting other protocol-specified tests that are deemed critical to the safety evaluation of the study. The adverse event severity grading scale for the NCI Common Terminology Criteria for Adverse Events (CTCAE) v5.0 was used for assessing adverse event severity. If daily dosing of ipatasertib was not tolerated, dosing with food might be used to alleviate gastrointestinal symptoms. […] For ipatasertib, with a starting dose of 300 mg, the first dose reduction was to 200 mg and the second down to 100 mg.
# [2] = tested on: CYP3A; conditions: 2021, cited from earlier work
# [3] = Steady-state plasma PK of ipatasertib and M1 (LC-MS/MS, noncompartmental analysis), Phase Ib study; type: in vivo, human; conditions: for Tmax: 300 mg, median (range)
# Protocol: From Cycle 2 Day 1 onward, ipatasertib was taken orally and daily on Days 1–21 of each 28-day cycle. […] Additionally, fulvestrant 500 mg was given via intramuscular (IM) injection on Days 1 and 15 of Cycle 1, and then on Day 1 of each subsequent 28-day cycle. […] The initial safety follow-up extended through at least Day 15 of Cycle two for all patients. […] PK samples for ipatasertib and its major metabolite, M1 (G-037720), were collected at specified time points: 15 min pre-dose, 0.5, 1, 2, 3, 4, 6 h post-dose on Day 1 of Cycle 1, and Day 15 of Cycle 1, as well as 15 min pre-dose on Day 15 of Cycle 2 and 15 min pre-dose and 2 h post-dose on Day 15 of Cycle 3. […] The plasma concentrations of ipatasertib and its metabolite M1 was determined using a previously reported, validated liquid chromatography-tandem mass spectrometry assay (LC-MS/MS) ([Sutaria et al., 2022]). […] The sample analyses were performed at Labcorp Early Drug Development Laboratories, Inc. (Madison, WI, Unitd States) using a Shimadzu LC instrument equipped with an Agilent Polaris C8-A column (2.0 × 50 mm, 5 μm) interfaced with a Sciex API 4000 mass spectrometer operated in positive electrospray ionization mode. […] Noncompartmental PK analysis (NCA) was performed using the commercial software Phoenix WinNonlin (Certara Unitd States, Inc., Princeton, NJ, Unitd States, Version 8.1) to characterize the PK parameters of ipatasertib and M1 including maximal concentration (Cmax), time to maximal concentration (Tmax), area under the curve from time 0 to the last measurable concentration (AUC0-t). […] Non-compartmental PK analyses were performed using Phoenix(R) WinNonlin (Version 8.3, Certara). […] A linear mixed model with a fixed effect for treatment and a random effect for patients was used on the natural log-transformed PK parameters.
# [4] = tested on: CYP3A; set-up: method as in Jing et al., 2022; conditions: ipatasertib 300 mg in the presence of palbociclib; ref Jing et al., 2022; cited from earlier work
# [5] = tested on: CYP3A; conditions: 2021, cited from earlier work; remark: listed apart in the source
# [6] = cited from earlier work
# [7] = Palbociclib PK parameters estimated with established popPK model; type: in vivo, human
# [8] = Palbociclib predose plasma concentrations (LC-MS/MS), Phase Ib study; type: in vivo, human; conditions: for Palbociclib plasma concentration, C2D15 predose / Palbociclib plasma concentration, C1D15 predose / Palbociclib plasma concentration, C3D15 predose: 125 mg, Geomean (geoCV%)
# [9] = 300 mg QD with 125 mg palbociclib and fulvestrant vs alone
# [10] = C1D15 (with palbociclib and fulvestrant) / C1D1 (ipatasertib alone)
# [11] = human, plasma, oral, C1D1, ipatasertib 300 mg QD alone, N = 9, geometric mean (%geoCV)
# [12] = ipatasertib coadministered with palbociclib and fulvestrant vs ipatasertib alone
# [13] = ipatasertib 100 mg single dose with itraconazole, ref Sane et al.
# [14] = palbociclib administered alone, ref U.S. Food and Drug Administration, 2014
# [15] = additional patients for safety evaluation, N 9
structure (smiles),measurement,setting,value
C[C@]12CC[C@@H]3c4ccc(O)cc4C[C@@H](CCCCCCCCC[S+]([O-])CCCC(F)(F)C(F)(F)F)[C@H]3[C@@H]1CC[C@@H]2O (some centres unmarked) [Fulvestrant],Patients with AE leading to discontinuation of the drug,[1],0 Number of patients (%)
same,Patients with AE leading to dose interruption of the drug,[1],5 (25%) Number of patients (%)
same,Patients with AE leading to dose reduction of the drug,[1],0 Number of patients (%)
same,Patients with AE related to the drug,[1],16 (80%) Number of patients (%)
same,AE considered related to the drug: anemia,"[1]; triplet regimen, 20 patients",10%
same,AE considered related to the drug: asthenia,"[1]; triplet regimen, 20 patients",15%
same,AE considered related to the drug: hot flush,"[1]; triplet regimen, 20 patients",10%
same,CYP3A inhibition / induction classification,[2]; ref U.S. Food and Drug Administration,not an inhibitor or inducer of CYP3A
CC(C)NC[C@@H](C(=O)N1CCN(c2ncnc3c2[C@H](C)C[C@H]3O)CC1)c1ccc(Cl)cc1 [Ipatasertib],"Increase in AUC0-24,ss",[3]; [9],1.68 fold
same,"Increase in Cmax,ss",[3]; [9],1.49 fold
same,"AUC0-24,ss at 300 mg in presence of palbociclib relative to 400 mg in other clinical studies","[3]; 3,637 vs 2,920 ng*hr/mL",about 1.25 times
same,"AUC0-24,ss geometric mean ratio (GMR) (90% CI)",[3]; [10],"1.68 (1.41, 2.00)"
same,"Cmax,ss geometric mean ratio (GMR) (90% CI)",[3]; [10],"1.49 (1.18, 1.88)"
same,Tmax,"[3]; human, plasma, oral, C1D1, ipatasertib 300 mg QD alone",1 h
same,Tmax,"[3]; human, plasma, oral, C1D15, ipatasertib 300 mg QD with palbociclib and fulvestrant",1.9 h
same,"AUC0-24,ss",[3]; [11],2170 ng·h/mL
same,Cmax,[3]; [11],294 ng/mL
same,"Increase in AUC0-24,ss",[3]; [12],68%
same,"Increase in Cmax,ss",[3]; [12],49%
same,Patients with AE leading to discontinuation of the drug,[1],1 (5%) Number of patients (%)
same,Patients with AE leading to dose interruption of the drug,[1],16 (80%) Number of patients (%)
same,Patients with AE leading to dose reduction of the drug,[1],9 (45%) Number of patients (%)
same,Patients with AE related to the drug,[1],20 (100%) Number of patients (%)
same,AE considered related to the drug: anemia,"[1]; triplet regimen, 20 patients",30%
same,AE considered related to the drug: diarrhea,"[1]; triplet regimen, 20 patients",75%
same,AE considered related to the drug: fatigue,"[1]; triplet regimen, 20 patients",25%
same,AE considered related to the drug: nausea,"[1]; triplet regimen, 20 patients",70%
same,AE considered related to the drug: neutropenia,"[1]; triplet regimen, 20 patients",30%
same,AE considered related to the drug: neutrophil count decreased,"[1]; triplet regimen, 20 patients",25%
same,AE considered related to the drug: platelet count decreased,"[1]; triplet regimen, 20 patients",30%
same,AE considered related to the drug: rash,"[1]; triplet regimen, 20 patients",35%
same,AE considered related to the drug: vomiting,"[1]; triplet regimen, 20 patients",45%
same,CYP3A inhibition classification,"[2]; in vitro, ref Malhi et al.",mild to moderate CYP3A inhibitor
same,CYP3A4 substrate classification,[2]; ref Sane et al.,sensitive substrate
same,PBPK-predicted increase in AUC,[4],48%
same,PBPK-predicted increase in Cmax,[4],23%
same,Increase in AUC0-∞ with itraconazole,[5]; [13],5.45 fold
same,Increase in Cmax with itraconazole,[5]; [13],2.26 fold
same,Increase in AUC0-∞ of midazolam,"[5]; single dose of ipatasertib 600 mg with midazolam, ref Malhi et al.",2.22 fold
same,Effective half-life,"[6]; background statement, no reference printed with the sentence",approximately 24 h
same,"AUC0-24,ss","[6]; ipatasertib 400 mg in other clinical studies, ref Yoshida et al., 2021","2,920 ng*hr/mL"
same,Dose proportionality of exposure,"[6]; over the range of 200–800 mg, no reference printed with the sentence",dose-proportional
CC(=O)c1c(C)c2cnc(Nc3ccc(N4CCNCC4)cn3)nc2n(C2CCCC2)c1=O [Palbociclib],Patients with AE leading to discontinuation of the drug,[1],1 (5%) Number of patients (%)
same,Patients with AE leading to dose interruption of the drug,[1],13 (65%) Number of patients (%)
same,Patients with AE leading to dose reduction of the drug,[1],10 (50%) Number of patients (%)
same,Patients with AE related to the drug,[1],20 (100%) Number of patients (%)
same,AE considered related to the drug: anemia,"[1]; triplet regimen, 20 patients",40%
same,AE considered related to the drug: asthenia,"[1]; triplet regimen, 20 patients",25%
same,AE considered related to the drug: diarrhea,"[1]; triplet regimen, 20 patients",30%
same,AE considered related to the drug: nausea,"[1]; triplet regimen, 20 patients",40%
same,AE considered related to the drug: neutropenia,"[1]; triplet regimen, 20 patients",45%
same,AE considered related to the drug: neutrophil count decreased,"[1]; triplet regimen, 20 patients",40%
same,AE considered related to the drug: platelet count decreased,"[1]; triplet regimen, 20 patients",30%
same,AE considered related to the drug: stomatitis,"[1]; triplet regimen, 20 patients",25%
same,"AUC0-24,ss",[6]; [14],1982 ng·h/mL
same,"Cmax,ss",[6]; [14],116 ng/mL
same,AUC over 24 h dosing interval at steady state,"[7]; human, plasma, oral, 125 mg, read-out: AUC0-24,ss (popPK-estimated)",2600 ng·h/mL
same,"Cmax,ss (popPK-estimated)","[7]; palbociclib 125 mg with ipatasertib and fulvestrant, geometric mean (%CV)",124 ng/mL
same,"Palbociclib plasma concentration, C2D15 predose","[8]; additional patients for safety evaluation, N 6",83.2 (19.4) ng/mL
same,"Palbociclib plasma concentration, C1D15 predose",[8]; [15],73.8 (20.7) ng/mL
same,"Palbociclib plasma concentration, C3D15 predose",[8]; [15],67.5 (51.0) ng/mL
same,"Palbociclib plasma concentration, C1D15 predose","[8]; ipatasertib run-in group, N 9",69.9 (57.2) ng/mL
same,"Palbociclib plasma concentration, C2D15 predose","[8]; ipatasertib run-in group, N 10",76.9 (44.9) ng/mL
same,"Palbociclib plasma concentration, C3D15 predose","[8]; ipatasertib run-in group, N 10",71.5 (43.5) ng/mL
same,"Palbociclib plasma concentration, C2D15 predose","[8]; total, N 16",79.2 (36.4) ng/mL
same,"Palbociclib plasma concentration, C1D15 predose","[8]; total, N 18",71.8 (40.8) ng/mL
same,"Palbociclib plasma concentration, C3D15 predose","[8]; total, N 19",69.6 (45.7) ng/mL
same,Cmin,[8]; palbociclib in this study with ipatasertib and fulvestrant (summary of Table 3),approximately 70 ng/mL
